Reference: patent US6825230B2, “Spiro and dispiro 1,2,4-trixolane antimalarials” (Medicines for Malaria Venture MMV, priority 2002, dated 2004)
Converted amounts (≈) assume the structure as drawn. Where two headings read alike, the source gives them in different places.

Experiments:
[1] = test system: chloroquine-resistant K1 strain of P. falciparum; assay: In vitro antimalarial semiautomated microdilution assay ([3H]-hypoxanthine incorporation), K1 strain; assay type: cell-based, Plasmodium falciparum; conditions: Plasmodium falciparum
Protocol: (§1) Various OZ compounds were tested by the semiautomated microdilution assay against intraerythrocytic forms of Plasmodium falciparum derived from asynchronous stock cultures.
(§2) Fifty percent inhibitory concentration (IC50) were estimated by Logit regression analysis.

[2] = test system: chloroquine-sensitive NF54 strain of P. falciparum; assay: In vitro antimalarial semiautomated microdilution assay ([3H]-hypoxanthine incorporation), NF54 strain; assay type: cell-based, Plasmodium falciparum; conditions: Plasmodium falciparum
Protocol: as §1, §2

[3] = test system: ANKA strain of P. berghei; assay: Single dose STI in vivo screen in infected mice; set-up: species or system Plasmodium berghei; conditions: for Survival (days) 10 mg/kg po: single 10 mg/kg po in 3% ethanol and 7% Tween 80; for Survival (days) 10 mg/kg po / Survival (days) 10 mg/kg SSV po / Survival (days) 10 mg/kg sc: untreated 6-7 days; for Activity (%) 10 mg/kg po: single 10 mg/kg po in 3% ethanol and 7% Tween 80 on day 1 post-infection; for Activity (%) 10 mg/kg po / Activity (%) 10 mg/kg SSV po / Activity (%) 10 mg/kg sc: percent reduction in parasitemia on day 3; for Survival (days) 10 mg/kg SSV po: single 10 mg/kg po in SSV; for Activity (%) 10 mg/kg SSV po: single 10 mg/kg po in standard suspending vehicle (SSV) on day 1 post-infection; for Survival (days) 10 mg/kg sc: single 10 mg/kg sc in 3% ethanol and 7% Tween 80; for Activity (%) 10 mg/kg sc: single 10 mg/kg sc in 3% ethanol and 7% Tween 80 on day 1 post-infection
[4] = chloroquine-resistant K1 strain, 72 h incubation, read-out: IC50 (ng/ml) K1
[5] = chloroquine-sensitive NF54 strain, 72 h incubation, read-out: IC50 (ng/ml) NF54
[6] = K1, 72 h, read-out: IC50 (ng/ml) K1, chloroquine-resistant K1 strain, 72 h incubation
[7] = NF54, 72 h, read-out: IC50 (ng/ml) NF54, chloroquine-sensitive NF54 strain, 72 h incubation

Compound | IC50 [1, 4] | IC50 [2, 5] | Survival (days) 10 mg/kg po [3] | Activity (%) 10 mg/kg po [3] | Survival (days) 10 mg/kg SSV po [3] | Activity (%) 10 mg/kg SSV po [3] | Survival (days) 10 mg/kg sc [3] | Activity (%) 10 mg/kg sc [3] | IC50 [1, 6] | IC50 [2, 7]
O=C(O)C1(C(=O)O)COC2(CCC3(CC2)OOC2(O3)C3CC4CC(C3)CC2C4)OC1 (stereo not drawn) [OZ122, Adamantane-2-spiro-3′-11′,11′-dicarboxy-1′,2′,4′,9′,13′-pentaoxadispiro[4.2.5.2]pentadecane] | > 100 ng/mL | > 100 ng/mL | 5.7 days | 10% | 5.3 days | 3% | 5.0 days | 0% |  | 
BrC[C@H]1CC[C@]2(CC1)OOC1(O2)C2CC3CC(C2)CC1C3 (stereo partly drawn) [OZ123] | 1.6 ng/mL (≈ 4.48 nM) | 1.9 ng/mL (≈ 5.32 nM) | 8.0 days | 99.66% | 7.0 days | 94% | 16 days | 99.96% |  | 
N#Cc1ccc(C2(c3ccccc3)OOC3(O2)C2CC4CC(C2)CC3C4)cc1 (stereo not drawn) [OZ124] | 2.1 ng/mL (≈ 5.62 nM) | 1.7 ng/mL (≈ 4.55 nM) | 6.3 days | 72% | 5.3 days | 17% | 7.0 days | 86% |  | 
CCOC(=O)c1ccc(C2(c3ccc(C(=O)OCC)cc3)OOC3(O2)C2CC4CC(C2)CC3C4)cc1 (stereo not drawn) [OZ125, Adamantane-2-spiro-3′-5′,5′-bis[4′-(ethoxycarbonyl)phenyl]-1′,2′,4′-trioxolane] | 68 ng/mL (≈ 138 nM) | > 100 ng/mL | 5.3 days | 8% | 5.7 days | 0% | 6.0 days | 0% |  | 
C=C1COC2(CCC3(CC2)OOC2(O3)C3CC4CC(C3)CC2C4)OC1 (stereo not drawn) [OZ128, Adamantane-2-spiro-3′-11′-methylene-1′,2′,4′,9′,13′-pentaoxadispiro[4.2.5.2]pentadecane] |  |  | 8.3 days | 99.93% | 8.7 days | 99.95% | 11.7 days | 99.98% | 0.59 ng/mL (≈ 1.69 nM) | 1.1 ng/mL (≈ 3.16 nM)
CC(C)(CO)NC(=O)[C@H]1CC[C@]2(CC1)OOC1(O2)C2CC3CC(C2)CC1C3 (stereo partly drawn) [OZ129] |  |  | 5.3 days | 0% | 5.7 days | 4% | 5.7 days | 0% | 10 ng/mL (≈ 26.4 nM) | > 10 ng/mL
O=S(=O)(Cc1ccccc1)N1CCC2(CC1)OOC1(O2)C2CC3CC(C2)CC1C3 (stereo not drawn) [OZ131, Adamantane-2-spiro-3′-8′-phenylmethanesulfonyl-1′,2′,4′-trioxa-8′-azaspiro[4.5]decane] |  |  | 5.7 days | 21% | 6.0 days | 41% | 8.0 days | 90% | 1.7 ng/mL (≈ 4.05 nM) | 4.1 ng/mL (≈ 9.77 nM)
O=C(O)c1ccccc1C(=O)N1CCC2(CC1)OOC1(O2)C2CC3CC(C2)CC1C3 (stereo not drawn) [OZ132, Adamantane-2-spiro-3′-8′-(2′-carboxybenzoyl)-1′,2′,4′-trioxa-8′-azaspiro[4.5]decane] |  |  | 6.3 days | 38% | 5.7 days | 0% | 6.3 days | 40% | 9.8 ng/mL (≈ 23.7 nM) | > 10 ng/mL
c1ccc2c(c1)OCCC21OOC2(O1)C1CC3CC(C1)CC2C3 (stereo not drawn) [OZ134, Adamantane-2-spiro-3′-1′,2′,4′-trioxolane-5′-spiro-4″-2″, 3″-dihydro-4″H-1″-benzopyran] |  |  | 6.3 days | 72% | 6.0 days | 27% | 15.3 days | 99.95% | 0.88 ng/mL (≈ 2.8 nM) | 1.1 ng/mL (≈ 3.5 nM)
O=C(O)c1ccc(C2(c3ccc(C(=O)O)cc3)OOC3(O2)C2CC4CC(C2)CC3C4)cc1 (stereo not drawn) [OZ135, Adamantane-2-spiro-3′-5′,5′-bis(4′-carboxyphenyl)-1′,2′,4′-trioxolane] |  |  | 5.3/5.3/5.3 days | 1% | 5.3/5.3/5.3 days | 0% | 5.3/5.3/5.3 days | 0% | > 100 ng/mL | > 100 ng/mL
O=C1c2ccccc2C(=O)N1[C@H]1CC[C@]2(CC1)OOC1(O2)C2CC3CC(C2)CC1C3 (stereo partly drawn) [OZ136] |  |  | 6.0/6.0/6.0 days | 0/0/0% | 6.0/6.0/6.0 days | 0/0/0% | 6.0/6.0/6.0 days | 0/0/0% | 23 ng/mL (≈ 56.2 nM) | 21 ng/mL (≈ 51.3 nM)
COC(=O)c1ccc(C2(c3ccccc3)OOC3(O2)C2CC4CC(C2)CC3C4)cc1 (stereo not drawn) [OZ138, Adamantane-2-spiro-3′-5′-[4′-(methoxycarbonyl)phenyl]-5′-phenyl-1′,2′,4′-trioxolane] |  |  | 5.7 days | 0% | 6.3 days | 5% | 6.3 days | 7% | 10 ng/mL (≈ 24.6 nM) | 19 ng/mL (≈ 46.7 nM)
O=C(OC[C@H]1CC[C@]2(CC1)OOC1(O2)C2CC3CC(C2)CC1C3)n1ccnc1 (stereo partly drawn) [OZ141, cis-Adamantane-2-spiro-3′-1′,2′,4′-trioxaspiro[4.5]decane-8′-methyl imidazole-1-carboxylate] |  |  | 8.0 days | 98% | 8.0 days | 97% | 8.7 days | 99.89% | 1.7 ng/mL (≈ 4.38 nM) | 1.9 ng/mL (≈ 4.89 nM)
CC(C)(C)NC(=O)N1CCC2(CC1)OOC1(O2)C2CC3CC(C2)CC1C3 (stereo not drawn) [OZ143, Adamantane-2-spiro-3′-8′-(t-butylaminocarbonyl)-1′,2′,4′-trioxa-8′-azaspiro[4.5]decane] |  |  | 6.7 days | 48% | 6.7 days | 44% | 9.7 days | 99.85% | 0.98 ng/mL (≈ 2.69 nM) | 1.8 ng/mL (≈ 4.94 nM)
S=C(Nc1ccccc1)N1CCC2(CC1)OOC1(O2)C2CC3CC(C2)CC1C3 (stereo not drawn) [OZ144, Adamantane-2-spiro-3′-8′-(phenylaminothiocarbonyl)-1′,2′,4′-trioxa-8′-azaspiro[4.5]decane] |  |  | 7.3 days | 99.45% | 7.3 days | 92% | 16.7 days | 99.94% | 1.4 ng/mL (≈ 3.5 nM) | 2.1 ng/mL (≈ 5.24 nM)
